According to patent US10770169B2, “Method of providing a treatment to a subject based on a dynamic pathway map” (THE REGENTS OF THE UNIVERSITY OF CALIFORNIA, priority 2010, dated 2020):
Where two headings read alike, the source gives them in different places.

Test system: panel of 55 breast cancer cell lines
Assay: Cell growth inhibition assay (Cell Titer Glo, 72 h, 9 doses; GI50, TGI, LC50)
Format: cell-based, human

Work on `COc1cc(Nc2c(C#N)cnc3cc(OCCCN4CCN(C)CC4)c(OC)cc23)c(Cl)cc1Cl` [Bosutinib] yielded a GI50 (Homo sapiens, 600MPE cell line, censored GI50 values, read-out: GI50 (converted)) of 8910 nM, a GI50 (Homo sapiens, AU565, AU565 cell line, censored GI50 values, read-out: GI50 (converted)) of 2140 nM and a GI50 (Homo sapiens, AU565, cell line AU565, read-out: GI50 (converted)) of 2140 nM. The GI50 (Homo sapiens, BT-20, BT20 cell line, censored GI50 values, read-out: GI50 (converted)) was 1380 nM, the GI50 (Homo sapiens, BT-20, cell line BT20, read-out: GI50 (converted)) was 1380 nM and the GI50 (Homo sapiens, BT-474, BT474 cell line, censored GI50 values, read-out: GI50 (converted)) was 724 nM. For the same molecule, the GI50 (Homo sapiens, BT-474, cell line BT474, read-out: GI50 (converted)) was 724 nM, the GI50 (Homo sapiens, BT-483, BT483 cell line, censored GI50 values, read-out: GI50 (converted)) was 3550 nM and the GI50 (Homo sapiens, BT-483, cell line BT483, read-out: GI50 (converted)) was 3550 nM. The GI50 (Homo sapiens, CAMA-1, CAMA1 cell line, censored GI50 values, read-out: GI50 (converted)) was 3240 nM, the GI50 (Homo sapiens, CAMA-1, cell line CAMA1, read-out: GI50 (converted)) was 3240 nM and the GI50 (Homo sapiens, HCC38, HCC38 cell line, censored GI50 values, read-out: GI50 (converted)) was 891 nM. The GI50 (Homo sapiens, HCC38, cell line HCC38, read-out: GI50 (converted)) was 891 nM, the GI50 (Homo sapiens, HCC70, HCC70 cell line, censored GI50 values, read-out: GI50 (converted)) was 891 nM and the GI50 (Homo sapiens, HCC70, cell line HCC70, read-out: GI50 (converted)) was 891 nM. For the same molecule, the GI50 (Homo sapiens, HCC1143, HCC1143 cell line, censored GI50 values, read-out: GI50 (converted)) was 4900 nM, the GI50 (Homo sapiens, HCC1143, cell line HCC1143, read-out: GI50 (converted)) was 4900 nM and the GI50 (Homo sapiens, HCC1187, HCC1187 cell line, censored GI50 values, read-out: GI50 (converted)) was 3160 nM. It also gave a GI50 (Homo sapiens, HCC1187, cell line HCC1187, read-out: GI50 (converted)) of 3160 nM, a GI50 (Homo sapiens, HCC1419, HCC1419 cell line, censored GI50 values, read-out: GI50 (converted)) of 759 nM and a GI50 (Homo sapiens, HCC1419, cell line HCC1419, read-out: GI50 (converted)) of 759 nM. For the same molecule, the GI50 (Homo sapiens, HCC1428, HCC1428 cell line, censored GI50 values, read-out: GI50 (converted)) was 3890 nM, the GI50 (Homo sapiens, HCC1428, cell line HCC1428, read-out: GI50 (converted)) was 3890 nM and the GI50 (Homo sapiens, HCC1500, HCC1500 cell line, censored GI50 values, read-out: GI50 (converted)) was 2570 nM. For the same molecule, the GI50 (Homo sapiens, HCC1500, cell line HCC1500, read-out: GI50 (converted)) was 2570 nM, the GI50 (Homo sapiens, HCC1806, HCC1806 cell line, censored GI50 values, read-out: GI50 (converted)) was 2090 nM and the GI50 (Homo sapiens, HCC1806, cell line HCC1806, read-out: GI50 (converted)) was 2090 nM. It also gave a GI50 (Homo sapiens, HCC1937, HCC1937 cell line, censored GI50 values, read-out: GI50 (converted)) of 1450 nM, a GI50 (Homo sapiens, HCC1937, cell line HCC1937, read-out: GI50 (converted)) of 1450 nM and a GI50 (Homo sapiens, HCC1954, HCC1954 cell line, censored GI50 values, read-out: GI50 (converted)) of 1170 nM. For the same molecule, the GI50 (Homo sapiens, HCC1954, cell line HCC1954, read-out: GI50 (converted)) was 1170 nM, the GI50 (Homo sapiens, HCC2185 cell line, censored GI50 values, read-out: GI50 (converted)) was 5010 nM and the GI50 (Homo sapiens, HCC3153 cell line, censored GI50 values, read-out: GI50 (converted)) was 3800 nM. It also gave a GI50 (Homo sapiens, LY2 cell line, censored GI50 values, read-out: GI50 (converted)) of 2450 nM, a GI50 (Homo sapiens, MCF7, MCF7 cell line, censored GI50 values, read-out: GI50 (converted)) of 2570 nM and a GI50 (Homo sapiens, MCF7, cell line MCF7, read-out: GI50 (converted)) of 2570 nM. It also gave a GI50 (Homo sapiens, MDA-MB-175-VII, MDAMB175VII cell line, censored GI50 values, read-out: GI50 (converted)) of 1070 nM, a GI50 (Homo sapiens, MDA-MB-361, MDAMB361 cell line, censored GI50 values, read-out: GI50 (converted)) of 1510 nM and a GI50 (Homo sapiens, MDA-MB-436, MDAMB436 cell line, censored GI50 values, read-out: GI50 (converted)) of 5010 nM. For the same molecule, the GI50 (Homo sapiens, MDA-MB-453, MDAMB453 cell line, censored GI50 values, read-out: GI50 (converted)) was 2340 nM, the GI50 (Homo sapiens, MDA-MB-468, MDAMB468 cell line, censored GI50 values, read-out: GI50 (converted)) was 2570 nM and the GI50 (Homo sapiens, SK-BR-3, SKBR3 cell line, censored GI50 values, read-out: GI50 (converted)) was 3890 nM. For the same molecule, the GI50 (Homo sapiens, SUM52PE, SUM52PE cell line, censored GI50 values, read-out: GI50 (converted)) was 1450 nM, the GI50 (Homo sapiens, SUM149PT, SUM149PT cell line, censored GI50 values, read-out: GI50 (converted)) was 759 nM and the GI50 (Homo sapiens, SUM1315MO2, SUM1315MO2 cell line, censored GI50 values, read-out: GI50 (converted)) was 871 nM. The GI50 (Homo sapiens, SUM-159-PT, SUM159PT cell line, censored GI50 values, read-out: GI50 (converted)) was 1380 nM, the GI50 (Homo sapiens, T47D, T47D cell line, censored GI50 values, read-out: GI50 (converted)) was 5620 nM and the GI50 (Homo sapiens, UACC-812, UACC812 cell line, censored GI50 values, read-out: GI50 (converted)) was 2750 nM. The GI50 (Homo sapiens, ZR-75-1, ZR751 cell line, censored GI50 values, read-out: GI50 (converted)) was 14100 nM, the GI50 (Homo sapiens, ZR-75B, ZR75B cell line, censored GI50 values, read-out: GI50 (converted)) was 7080 nM and the GI50 (Homo sapiens, cell line 600MPE, read-out: GI50 (converted)) was 8910 nM. For the same molecule, the GI50 (Homo sapiens, cell line HCC2185, read-out: GI50 (converted)) was 5010 nM, the GI50 (Homo sapiens, cell line HCC3153, read-out: GI50 (converted)) was 3800 nM and the GI50 (Homo sapiens, cell line LY2, read-out: GI50 (converted)) was 2450 nM.
Molecule `CCc1c2c(nc3ccc(OC(=O)N4CCC(N5CCCCC5)CC4)cc13)-c1cc3c(c(=O)n1C2)COC(=O)[C@]3(O)CC` [CPT-11] has a GI50 (CAMA1 cell line, censored GI50 values, value is the negative log10 of mol/L) of 4.84, a GI50 (MDAMB157 cell line, censored GI50 values, value is the negative log10 of mol/L) of 4.80 and a GI50 (cell line CAMA1, value is the negative log10 of mol/L) of 4.84. For the same molecule, the GI50 (cell line MDAMB157, value is the negative log10 of mol/L) was 4.80.
